# Entries after “also recorded” stand apart in the source; their conditions may differ.
# Legend:
# lid-sutured eyes = assay: Form deprivation myopia induced by eyelid suture in chicks; VIP given daily by subconjunctival injection to the sutured eye, ocular dimensions measured with calipers; assay type: in vivo, White Leghorn chicks; conditions: for Axial length (deprived minus control eye), mean ± S.E.M. / Equatorial diameter (deprived minus control eye), mean ± S.E.M.: subconjunctival
# Description: (§1) Form deprivation myopia in day-old White Leghorn chicks was induced by eyelid suture under aseptic conditions and ether anesthesia. One eyelid of the chicks was sutured. […] Translucent vision is permitted through the eyelid. The contralateral unsutured open eye served as the control eye. VIP was administered daily to the deprived, or sutured, eye. Saline was administered to the unsutured eye. All agents were given under ether anesthesia by subconjunctival injection. The chicks were maintained on a 12 hour light/dark cycle. The birds were killed at ages up to 4 weeks by decapitation under deep pentobarbital anesthesia. Axial and equatorial dimensions of unfixed eyes were measured with vernier calipers.
# (§2) VIP (porcine VIP, Peninsula Laboratories, Inc. Belmont Calif.) was administered in three (descending) dose levels to lid-sutured eyes of 23 chicks and to one eye of an additional 15 chicks which had both eyes open.
# open eyes = assay: Effect of VIP on growth of open eyes (control chicks with both eyes open, one eye treated); assay type: in vivo, White Leghorn chicks; conditions: for Axial length (treated eye minus untreated eye), mean ± S.E.M. / Equatorial diameter (treated eye minus untreated eye), mean ± S.E.M.: open eyes, subconjunctival
# Description: as §1, §2
structure (smiles),measurement,setting,value
"CC[C@H](C)[C@H](NC(=O)[C@H](CO)NC(=O)[C@H](CC(N)=O)NC(=O)[C@H](CC(C)C)NC(=O)[C@H](Cc1ccc(O)cc1)NC(=O)[C@H](CCCCN)NC(=O)[C@H](CCCCN)NC(=O)[C@@H](NC(=O)[C@H](C)NC(=O)[C@H](CCSC)NC(=O)[C@H](CCC(N)=O)NC(=O)[C@H](CCCCN)NC(=O)[C@H](CCCNC(=N)N)NC(=O)[C@H](CC(C)C)NC(=O)[C@H](CCCNC(=N)N)NC(=O)[C@@H](NC(=O)[C@H](Cc1ccc(O)cc1)NC(=O)[C@H](CC(N)=O)NC(=O)[C@H](CC(=O)O)NC(=O)[C@@H](NC(=O)[C@H](Cc1ccccc1)NC(=O)[C@@H](NC(=O)[C@H](C)NC(=O)[C@H](CC(=O)O)NC(=O)[C@H](CO)NC(=O)[C@@H](N)Cc1c[nH]cn1)C(C)C)[C@@H](C)O)[C@@H](C)O)C(C)C)C(=O)N[C@@H](CC(C)C)C(=O)N[C@@H](CC(N)=O)C(N)=O [VIP, vasoactive intestinal peptide]",Block of axial elongation,lid-sutured eyes; 0.25 μg dose,~80%
same,"Treatment effect on axial length, one way analysis of variance",lid-sutured eyes; (p<0.05),significant treatment effects
same,Treatment effect on equatorial diameters,"lid-sutured eyes; VIP treatment, all doses",no significant treatment effects
same,"Axial length (deprived minus control eye), mean ± S.E.M.",lid-sutured eyes; daily dose 0.025 μg,0.17 ± 0.10 mm
same,"Equatorial diameter (deprived minus control eye), mean ± S.E.M.",lid-sutured eyes; daily dose 0.025 μg,0.91 ± 0.05 mm
same,"Axial length (deprived minus control eye), mean ± S.E.M.",lid-sutured eyes; daily dose 0.25 μg,0.07 ± 0.07 mm
same,"Equatorial diameter (deprived minus control eye), mean ± S.E.M.",lid-sutured eyes; daily dose 0.25 μg,0.92 ± 0.04 mm
same,Effective range of the peptide,lid-sutured eyes; daily dose 2.5 μg,outside the effective range
same,"Axial length (deprived minus control eye), mean ± S.E.M.",lid-sutured eyes; daily dose 2.5 μg,0.34 ± 0.15 mm
same,"Equatorial diameter (deprived minus control eye), mean ± S.E.M.",lid-sutured eyes; daily dose 2.5 μg,0.90 ± 0.10 mm
same,"Treatment effect on axial length, one way analysis of variance",lid-sutured eyes; dose 0.25 μg (p<0.001),profound treatment effect; also recorded: significant treatment effects
same,Treatment effect on axial or equatorial diameters,"open eyes; controls (both eyes open), all three levels of VIP",no significant treatment effect
same,"Axial length (treated eye minus untreated eye), mean ± S.E.M.",open eyes; daily dose 0.025 μg,0.008 ± 0.10 mm
same,"Equatorial diameter (treated eye minus untreated eye), mean ± S.E.M.",open eyes; daily dose 0.025 μg,0.07 ± 0.04 mm
same,"Axial length (treated eye minus untreated eye), mean ± S.E.M.",open eyes; daily dose 0.25 μg,0.03 ± 0.05 mm
same,"Equatorial diameter (treated eye minus untreated eye), mean ± S.E.M.",open eyes; daily dose 0.25 μg,0.02 ± 0.02 mm
same,"Axial length (treated eye minus untreated eye), mean ± S.E.M.",open eyes; daily dose 2.5 μg,0.13 ± 0.06 mm
same,"Equatorial diameter (treated eye minus untreated eye), mean ± S.E.M.",open eyes; daily dose 2.5 μg,-0.01 ± 0.06 mm
